Test results published in patent US9464086B2, “Crystalline forms of N,N-dicyclopropyl-4-(1,5-dimethyl-1 H-pyrazol-3-ylamino)-6-ethyl-1-methyl-1,6-dihydroimidazo[4,5-D]pyrrolo[2,3-B]pyridine-7-carboxamide for the treatment of myeloproliferative disorders” (BRISTOL-MYERS SQUIBB COMPANY, priority 2013, dated 2016).

Legend:
Assay type in all cases: physicochemical
[1] = Stability on exposure to UV/HIL; details: solid form; 4 days
Excerpt: (§1) As previously noted, the N-2 form was selected due to a number of properties including chemical/physical stability, reproducibility and hygroscopicity.

[2] = Stability of the crystalline form under accelerated conditions of temperature and humidity; details: solid form; up to 4 weeks
Excerpt: as §1

[3] = Stability of milled API under high humidity and temperature open dish conditions; details: up to 2 weeks, 25° C./60% RH and 40° C./75% RH open
Excerpt: as §1

CCn1c(C(=O)N(C2CC2)C2CC2)cc2c3c(ncn3C)c(Nc3cc(C)n(C)n3)nc21 [Form N-2, N,N-dicyclopropyl-4-(1,5-dimethyl-1H-pyrazol-3-ylamino)-6-ethyl-1-methyl-1,6-dihydroimidazo[4,5-d]pyrrolo[2,3-b]pyridine-7-carboxamide]
stable: stability on exposure to UV/HIL [1] | stability under accelerated conditions of temperature and humidity [2] | stability under high humidity and temperature open dish conditions [3]
